From publication PMC4861708 (Frontiers in Cell and Developmental Biology, 2016)
≈ marks a conversion by molar mass, not a printed value. Where a SMILES comes first, the peptide text is derived from it. [ ]: non-standard residue; d: D form. The star is where a group is joined. Orn(α-tetramethylguanidino) = CN(C)C(=N[C@@H](CCCN)C(=O)*)N(C)C; Orn = NCCC[C@H](N)C(=O)O

What was measured:
[1] = in vitro; assay type: cell-based, rat; details: rat
Protocol: (§1) Human embryonic kidney (HEK293) and HeLa cells were cultured in Dulbecco's modified Eagle's/Ham's F-12 medium [DMEM/F-12 (1:1)] supplemented with FBS (10% v/v), penicillin, and streptomycin (1000 units each). Primary rat cardiomyocytes (Innoprot, Elexalde Derio, Spain) were grown in medium supplemented with FBS (20% v/v), horse serum (5% v/v), L-glutamine (2 mmol/L), sodium pyruvate (2 mmol/L), MEM non-essential amino acids (Gibco, 0.1 mmol/L), penicillin, and streptomycin (1000 units each). Surfaces for cardiomyocyte growth were coated with attachment factor first. Cells (20,000/well) were seeded into a 96-well plate (PS, sterile, flat bottom), incubated for 24 h (37°C, 5% CO2), and washed twice with PBS (100 μl/well) prior to adding colorless medium (88 μL) and peptide solution (12 μL; 5, 2.5, 1.25, […], and 0.625 g/L in PBS). Positive controls were triton X-100 (1%, v/v) and melittin (60 mg/L) as lytic peptide, whereas PBS (12%, v/v) served as negative control. After an incubation period of 24 h, supernatant (25 μL) was mixed with lactate dehydrogenase (LDH) substrate (175 μL; 0.57 mmol/L sodium pyruvate, 0.24 mmol/L NADH disodium salt, 32 mmol/L potassium dihydrogen phosphate, 66 mmol/L dipotassium phosphate) in 96-well plates (PS, sterile, flat bottom). Absorbance was recorded at 340 nm every 3 min for 30 min on the Paradigm microplate reader. Due to the total release of LDH upon triton X-100 treatment, the control contained high LDH concentrations resulting in a fast substrate turnover that was only linear for the first 6 min.
(§2) The MTT cell viability assay relied on the same cell culture. Remaining medium was replaced by a mixture of fresh colorless medium (100 μL) and MTT (10 μL; 5 g/L in PBS) and incubated for 4 h (37°C, 5% CO2). A solution of sodium dodecyl sulfate (100 μL; 10%, w/v) dissolved in hydrochloric acid (10 mmol/L) was added, incubated (16 h), and the absorbance recorded at 590 nm relative to the reference at 650 nm (Paradigm microplate reader). The relative cell viability was calculated by [(ODPeptide − ODTriton)/(ODPBS − ODTriton)] × 100% and half-maximal inhibitory concentrations (IC50) with an Excel-template from cell biology protocols (www.sciencegateway.org/ protocols/cellbio/drug/hcic50.htm). For statistical analysis an unpaired t-test was applied using GraphPad Prism 5.0.

[2] = test system: Primary rat cardiomyocytes; assay: in vitro; assay type: cell-based; details: 24 h
Protocol: as §1, §2

[3] = in vitro; details: mouse, mouse serum
Protocol: Peptide solutions (1 g/L) were added to mouse serum to obtain final concentrations of 70 mg/L peptide and incubated under constant shaking at 37°C. After 0, 1, 2, 3, and 6 h aliquots (95 μL) were precipitated with aqueous TCA (25 μL, 15% w/v), incubated for 10 min on ice, and centrifuged (5 min, 12,000 × g, Eppendorf mini spin centrifuge). An aliquot of the supernatant (95 μL) was neutralized with sodium hydroxide (8 μL, 1 mol/L) and diluted with aqueous acetonitrile solution (3% acetonitrile, 0.1% TFA; 200 μL). Peptides were quantified by the peak areas obtained by analytical RP-HPLC on a Jupiter C18-column (ID: 2 mm) using a linear aqueous acetonitrile gradient with 0.1% (v/v) TFA (absorbance recorded at 214 nm). Peak areas of all time points were normalized to the initial peak area obtained after “0 min incubation” (= 100%). Experiments were carried out as triplicates in parallel and half-life times were calculated using GraphPad Prism 5.0.

[4] = test system: HeLa cells; assay: Flow cytometry, cell uptake of Cf-labeled peptides; assay type: cell-based; details: flow cytometry (abstract)
Protocol: HeLa cells (50,000 for endocytosis inhibition and 70,000 for uptake kinetics) suspended in DMEM/F-12 medium (300 μL; see above) were seeded into 48-well plates (PS, sterile, flat bottom) and incubated (23 ± 1 h) using the conditions described above. Cells were washed twice with PBS (300 μL/well) and fresh medium was added (144 μL).
Peptide solutions (6 μL; 1 mmol/L in H2O) were added to achieve a concentration of 40 μmol/L at different time points. Cells were washed three times with PBS (300 μL/well), treated with trypsin (75 μL; 0.05% w/v trypsin, 5 min, 37°C), rinsed off the plate using cold PBS (600 μL/well), and trypsin was removed by two washing steps (400 × g, 4°C, 4 min, 600 μL PBS each). Cells were suspended in PBS (0.1 mL) containing eFluor660 (1000 × diluted in PBS) and incubated on ice in the dark. After 30 min, cells were washed with cold PBS twice, suspended in formaldehyde (100 μL; 2% w/v in PBS), incubated (15 min, RT), washed (200 μL PBS), stored in FACS buffer (200 μL; 3% FBS, 0.1% NaN3 in PBS) overnight, and analyzed on a FACSCalibur (Becton Dickinson, New Jersey, USA). Alternatively, cells were fixed directly without prior eFluor660 staining.

[5] = test system: HeLa cells; assay: in vitro; assay type: cell-based; details: 24 h
Protocol: as §1, §2

[6] = test system: human erythrocytes; assay: Hemolysis assay; assay type: cell-based; details: 0.1 g/L peptide, 1 h
Protocol: Human EDTA blood (S-Monovette® with potassium-EDTA Sarstedt AG, Nümbrecht, Germany) was centrifuged (3 min, 300 × g, 4°C) and blood cells were washed three times using the 10-fold volume of cold PBS. The diluted blood cell suspension (2% v/v in PBS, 50 μL) was mixed with a peptide solution (1.2 or 0.2 g/L in PBS, 50 μL) or triton X-100 (1%, v/v in PBS; control) in 96-well plates (PP, V-bottom). After incubation under constant shaking (1 h, 37°C, 300 rpm, Eppendorf Thermomixer) the suspension was centrifuged (3 min, 4°C, 1000 × g) and the OD405 of the supernatant was measured in a 384-well plate (PS, flat bottom, Paradigm microplate reader, Molecular Devices, Sunnyvale, USA). The hemolytic grade (HG) was calculated as [(ODPeptide−ODPBS)/(ODTriton−ODPBS)] × 100%.

[7] = Half-life time against serum proteases, serum (abstract)
[8] = Half-life time mouse serum, 37°C

## CC(C)C[C@H](NC(=O)[C@H](CCCNC(=N)N)NC(=O)[C@@H]1CCCN1C(=O)[C@H](Cc1c[nH]cn1)NC(=O)[C@@H]1CCCN1C(=O)[C@@H]1CCCN1C(=O)[C@H](CCCNC(=N)N)NC(=O)[C@@H]1CCCN1C(=O)[C@H](CCCNC(=N)N)NC(=O)[C@@H]1CCCN1C(=O)[C@H](CCCN)NC(=O)[C@H](Cc1ccc(O)cc1)NC(=O)[C@@H](NC(=O)[C@@H]1CCCN1C(=O)[C@H](CCCNC(=N)N)NC(=O)[C@H](CCCN)NC(=O)[C@H](Cc1c[nH]c2ccccc12)NC(=O)[C@H](CCCN)NC(=O)[C@H](Cc1c[nH]c2ccccc12)NC(=O)[C@H](CCCN)NC(=O)[C@H](Cc1c[nH]c2ccccc12)NC(=O)[C@H](CCCN)N=C(N(C)C)N(C)C)C(C)C)C(=O)O [Api794, gu-O(WO)3RPVYOPRPRPPHPRL-OH] ({Orn(α-tetramethylguanidino)}-W[Orn]W[Orn]W[Orn]RPVY[Orn]PRPRPPHPRL-OH)
[1]
  viability at 24 h, 0.6 g/L: 64 ± 3%
[2]
  IC50 on cell viability: >600 µg/mL
[3]; [7]
  half-life at 70 mg/L: > 5 h
[3]; [8]
  half-life at 70 mg/L: 5.18 h
[4]
  higher uptake compared with Api795: 50%
[5]
  IC50 on cell viability: 230 ± 90 µg/mL (≈ 77.6 µM)
[6]
  Hemolytic grade: 1.7 ± 0.2%

## CC[C@H](C)[C@H](NC(=O)[C@H](CCCN)N=C(N(C)C)N(C)C)C(=O)N[C@@H](CCCN)C(=O)N[C@H](C(=O)N[C@@H](CCCN)C(=O)N[C@@H](CCCNC(=N)N)C(=O)N1CCC[C@H]1C(=O)N[C@H](C(=O)N[C@@H](Cc1ccc(O)cc1)C(=O)N[C@@H](CCCN)C(=O)N1CCC[C@H]1C(=O)N[C@@H](CCCNC(=N)N)C(=O)N1CCC[C@H]1C(=O)N[C@@H](CCCNC(=N)N)C(=O)N1CCC[C@H]1C(=O)N1CCC[C@H]1C(=O)N[C@@H](Cc1c[nH]cn1)C(=O)N1CCC[C@H]1C(=O)N[C@@H](CCCNC(=N)N)C(=O)N[C@@H](CC(C)C)C(=O)O)C(C)C)[C@@H](C)CC [Api795, gu-O(IO)2RPVYOPRPRPPHPRL-OH] ({Orn(α-tetramethylguanidino)}-I[Orn]I[Orn]RPVY[Orn]PRPRPPHPRL-OH)
[1]
  viability at 24 h, 0.6 g/L: 83 ± 4%
[2]
  IC50 on cell viability: >600 µg/mL
[3]; [7]
  half-life at 70 mg/L: > 5 h
[3]; [8]
  half-life at 70 mg/L: 5.9 h
[5]
  IC50 on cell viability: >600 µg/mL
